Measured values taken from ChEMBL document CHEMBL3784917, “Recent Progress in Histone Demethylase Inhibitors” (J Med Chem, 2016).

How the values were obtained:
[1] = biological target: T1, Lysine-specific demethylase 4A (Homo sapiens, UniProt O75164); experiment: Inhibition of full-length FLAG-tagged KDM4A (unknown origin) expressed in human HeLa cells assessed as increase in H3K9me3 level after 24 hrs by DAPI staining based immunofuorescence assay; type: cell-based
T1 sequence (O75164 whole entry): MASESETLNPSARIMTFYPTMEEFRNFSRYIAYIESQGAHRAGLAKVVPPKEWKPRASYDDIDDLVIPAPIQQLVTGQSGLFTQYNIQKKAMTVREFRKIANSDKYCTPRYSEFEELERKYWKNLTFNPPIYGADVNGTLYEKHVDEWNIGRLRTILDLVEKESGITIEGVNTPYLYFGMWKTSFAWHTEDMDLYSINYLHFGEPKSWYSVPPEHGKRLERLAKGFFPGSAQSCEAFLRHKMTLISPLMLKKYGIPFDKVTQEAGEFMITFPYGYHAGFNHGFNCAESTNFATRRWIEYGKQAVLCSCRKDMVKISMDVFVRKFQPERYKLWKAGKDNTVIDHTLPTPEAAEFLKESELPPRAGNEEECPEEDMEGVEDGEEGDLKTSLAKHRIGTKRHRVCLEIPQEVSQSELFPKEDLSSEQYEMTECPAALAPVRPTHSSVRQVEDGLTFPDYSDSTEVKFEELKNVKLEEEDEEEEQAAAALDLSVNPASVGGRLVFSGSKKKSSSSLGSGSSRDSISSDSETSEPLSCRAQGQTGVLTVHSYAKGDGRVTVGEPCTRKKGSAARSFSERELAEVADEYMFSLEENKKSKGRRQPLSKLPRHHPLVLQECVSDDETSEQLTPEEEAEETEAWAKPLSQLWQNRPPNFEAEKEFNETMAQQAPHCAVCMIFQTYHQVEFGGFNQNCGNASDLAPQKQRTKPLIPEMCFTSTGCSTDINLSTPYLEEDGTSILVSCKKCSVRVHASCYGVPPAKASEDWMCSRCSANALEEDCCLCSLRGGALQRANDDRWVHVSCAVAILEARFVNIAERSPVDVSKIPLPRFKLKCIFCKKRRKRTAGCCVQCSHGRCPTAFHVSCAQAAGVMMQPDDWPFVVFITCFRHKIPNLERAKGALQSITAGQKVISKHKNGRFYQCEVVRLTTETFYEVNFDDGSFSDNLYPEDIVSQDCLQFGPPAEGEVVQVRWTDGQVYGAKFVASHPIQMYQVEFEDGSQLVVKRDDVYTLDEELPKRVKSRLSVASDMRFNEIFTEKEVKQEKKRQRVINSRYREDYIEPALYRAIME

[2] = biological target: Lysine-specific demethylase 6B (Homo sapiens, UniProt O15054); experiment: Inhibition of KDM6B (unknown origin) preincubated for 15 mins followed by histone substrate addition measured after 1 hr by alphascreen assay
[3] = biological target: T2, Lysine-specific demethylase 2A (Homo sapiens, UniProt Q9Y2K7); experiment: Inhibition of KDM2A (unknown origin) preincubated for 15 mins followed by histone substrate addition measured after 1 hr by alphascreen assay
T2 sequence (Q9Y2K7 whole entry): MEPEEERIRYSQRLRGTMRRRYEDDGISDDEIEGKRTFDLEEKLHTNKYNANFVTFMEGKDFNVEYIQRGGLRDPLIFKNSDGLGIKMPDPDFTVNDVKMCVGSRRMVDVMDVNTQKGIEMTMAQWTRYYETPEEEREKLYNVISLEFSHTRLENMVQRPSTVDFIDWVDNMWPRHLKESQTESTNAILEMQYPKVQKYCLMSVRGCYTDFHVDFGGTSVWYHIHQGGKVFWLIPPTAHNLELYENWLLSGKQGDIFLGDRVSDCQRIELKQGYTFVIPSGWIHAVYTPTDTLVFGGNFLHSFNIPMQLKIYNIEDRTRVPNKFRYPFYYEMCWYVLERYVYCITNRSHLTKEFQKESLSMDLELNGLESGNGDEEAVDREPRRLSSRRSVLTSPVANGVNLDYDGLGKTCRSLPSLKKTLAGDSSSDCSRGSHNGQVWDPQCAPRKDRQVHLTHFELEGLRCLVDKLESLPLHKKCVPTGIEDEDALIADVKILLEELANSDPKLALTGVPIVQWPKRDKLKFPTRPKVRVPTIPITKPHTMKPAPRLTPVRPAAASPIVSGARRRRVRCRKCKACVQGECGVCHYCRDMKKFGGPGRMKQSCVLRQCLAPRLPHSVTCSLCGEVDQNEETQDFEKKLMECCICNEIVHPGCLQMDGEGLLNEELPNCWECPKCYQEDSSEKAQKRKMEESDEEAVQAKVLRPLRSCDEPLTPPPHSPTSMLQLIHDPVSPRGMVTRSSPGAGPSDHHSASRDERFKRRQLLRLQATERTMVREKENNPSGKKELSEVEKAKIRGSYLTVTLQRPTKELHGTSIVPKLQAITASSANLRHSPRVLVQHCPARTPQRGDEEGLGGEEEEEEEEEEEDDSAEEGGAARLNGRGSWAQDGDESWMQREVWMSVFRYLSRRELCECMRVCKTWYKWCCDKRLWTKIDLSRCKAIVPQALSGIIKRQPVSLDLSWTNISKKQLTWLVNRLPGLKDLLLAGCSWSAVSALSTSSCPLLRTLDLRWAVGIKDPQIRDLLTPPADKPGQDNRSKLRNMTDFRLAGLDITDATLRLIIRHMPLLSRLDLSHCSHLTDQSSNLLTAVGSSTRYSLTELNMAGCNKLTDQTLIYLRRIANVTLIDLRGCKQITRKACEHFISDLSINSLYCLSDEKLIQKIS

Chain of Lysine-specific demethylase 6B (O15054 whole entry): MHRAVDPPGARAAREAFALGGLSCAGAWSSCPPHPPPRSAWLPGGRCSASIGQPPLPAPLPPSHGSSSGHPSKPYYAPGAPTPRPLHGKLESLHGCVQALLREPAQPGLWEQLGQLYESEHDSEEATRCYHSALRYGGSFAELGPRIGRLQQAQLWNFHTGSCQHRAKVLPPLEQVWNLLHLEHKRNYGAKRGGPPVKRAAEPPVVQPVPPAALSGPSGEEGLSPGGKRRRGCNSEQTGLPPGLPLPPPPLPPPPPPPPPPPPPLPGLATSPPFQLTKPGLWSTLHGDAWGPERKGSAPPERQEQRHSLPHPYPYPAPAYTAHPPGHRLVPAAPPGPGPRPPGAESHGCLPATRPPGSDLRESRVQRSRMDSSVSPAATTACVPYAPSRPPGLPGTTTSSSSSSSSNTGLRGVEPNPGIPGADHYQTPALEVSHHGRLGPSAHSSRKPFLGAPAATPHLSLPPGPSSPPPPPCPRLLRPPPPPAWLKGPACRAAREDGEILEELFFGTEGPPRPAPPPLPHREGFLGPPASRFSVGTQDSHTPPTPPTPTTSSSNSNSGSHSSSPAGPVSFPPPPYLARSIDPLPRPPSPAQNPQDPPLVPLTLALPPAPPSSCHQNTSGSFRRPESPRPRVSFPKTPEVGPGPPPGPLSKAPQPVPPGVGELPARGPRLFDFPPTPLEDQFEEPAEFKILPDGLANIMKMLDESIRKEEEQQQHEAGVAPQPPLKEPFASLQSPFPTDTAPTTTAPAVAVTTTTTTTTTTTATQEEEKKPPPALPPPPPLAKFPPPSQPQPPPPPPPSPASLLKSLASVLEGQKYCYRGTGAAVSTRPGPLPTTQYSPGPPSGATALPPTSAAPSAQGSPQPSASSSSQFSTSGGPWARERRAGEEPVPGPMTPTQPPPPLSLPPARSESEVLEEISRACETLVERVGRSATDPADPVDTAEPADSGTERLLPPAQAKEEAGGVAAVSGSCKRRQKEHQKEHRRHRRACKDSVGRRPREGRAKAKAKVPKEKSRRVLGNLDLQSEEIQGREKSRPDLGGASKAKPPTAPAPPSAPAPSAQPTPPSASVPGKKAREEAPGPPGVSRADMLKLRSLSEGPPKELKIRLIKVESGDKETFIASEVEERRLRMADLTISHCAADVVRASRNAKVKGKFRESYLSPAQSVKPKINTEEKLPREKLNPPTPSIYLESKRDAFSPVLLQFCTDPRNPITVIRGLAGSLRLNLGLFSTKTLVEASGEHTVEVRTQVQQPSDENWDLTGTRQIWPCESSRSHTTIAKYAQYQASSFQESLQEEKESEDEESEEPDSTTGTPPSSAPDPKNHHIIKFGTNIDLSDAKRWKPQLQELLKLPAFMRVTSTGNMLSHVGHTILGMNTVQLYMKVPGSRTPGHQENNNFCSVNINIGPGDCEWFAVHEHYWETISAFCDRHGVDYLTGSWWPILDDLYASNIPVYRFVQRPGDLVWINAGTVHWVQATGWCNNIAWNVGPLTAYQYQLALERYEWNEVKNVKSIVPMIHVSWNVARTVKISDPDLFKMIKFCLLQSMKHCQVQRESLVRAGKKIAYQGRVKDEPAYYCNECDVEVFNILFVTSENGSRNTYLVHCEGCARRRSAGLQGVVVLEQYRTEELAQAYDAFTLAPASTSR

Work on `Cc1ccsc1C(NC(=O)c1ccccc1)c1cc(Cl)c2cccnc2c1O` (racemic) yielded an EC50 [1] of 9 µM, an IC50 [2] of 106 µM and an IC50 [3] of 34 µM.
